Assay results published in US6638973B2, “Taxane formulations” (FSU Research Foundation, Inc., priority 2000, dated 2003).

What follows are compounds tested on HCT116 cells (assay: In vitro cytotoxicity measured by the cell colony formation assay). Settings: HCT116 cells, 72 h drug incubation, colonies counted after 7 days; ID50 = drug concentration producing 50% inhibition of colony formation; read-out: IN VITRO ID 50 (nm) HCT116.
Type: cell-based
In short: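 Colony-forming survival was scored 7 days after a 72 h, 37 °C compound exposure followed by washout into fresh medium.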

`C/C=C/C(=O)N[C@@H](c1ccco1)[C@@H](O)C(=O)O[C@H]1C[C@@]2(O)[C@@H](OC(=O)c3ccccc3)C3[C@](C)(C(=O)[C@H](O)C(=C1C)C2(C)C)[C@@H](OC(=O)NCC)C[C@H]1OC[C@@]31OC(C)=O` (stereo partly drawn) [Compound 5822] and `CC=CC(=O)NC(c1ccco1)C(O)C(=O)OC1CC2(O)C(OC(=O)c3ccccc3)C3C4(OC(C)=O)COC4CC(OC(=O)Nc4ccc(F)c(F)c4)C3(C)C(=O)C(O)C(=C1C)C2(C)C` (stereo not drawn) [Compound 5800] cannot be ordered by IC50: under 10 nM for the first, under 10 nM for the second.

Same assay, conditions: HCT116 cells, 72 h incubation with drug, colonies counted after 7 days; ID50 = drug concentration producing 50% inhibition of colony formation; read-out: IN VITRO ID 50 (nm) HCT116

`CCOC(=O)O[C@H]1C(=O)[C@@]2(C)C([C@H](OC(=O)c3ccccc3)[C@]3(O)C[C@H](OC(=O)[C@H](O)[C@@H](NC(=O)c4ccco4)c4ccco4)C(C)=C1C3(C)C)[C@]1(OC(C)=O)CO[C@@H]1C[C@@H]2O` (stereo partly drawn) [Compound 3911] and `CCOC(=O)O[C@H]1C(=O)[C@@]2(C)C([C@H](OC(=O)c3ccccc3)[C@]3(O)C[C@H](OC(=O)[C@H](O)[C@@H](NC(=O)C(C)C)c4ccco4)C(C)=C1C3(C)C)[C@]1(OC(C)=O)CO[C@@H]1C[C@@H]2O` (stereo partly drawn) [Compound 6466] cannot be ordered by IC50: under 1 nM for the first, under 10 nM for the second.

`CCOC(=O)O[C@H]1C[C@H]2OC[C@@]2(OC(C)=O)C2[C@H](OC(=O)c3ccccc3)[C@]3(O)C[C@H](OC(=O)[C@H](O)[C@@H](NC(=O)OC(C)(C)C)c4cccs4)C(C)=C([C@@H](O)C(=O)[C@@]21C)C3(C)C` (stereo partly drawn) [Compound 4234] and `COC(=O)O[C@H]1C[C@H]2OC[C@@]2(OC(C)=O)C2[C@H](OC(=O)c3ccccc3)[C@]3(O)C[C@H](OC(=O)[C@H](O)[C@@H](NC(=O)OC(C)(C)C)c4ccco4)C(C)=C([C@@H](O)C(=O)[C@@]21C)C3(C)C` (stereo partly drawn) [Compound 4533] cannot be ordered by IC50: under 1 nM for the first, under 1 nM for the second.

`COC(=O)O[C@H]1C[C@H]2OC[C@@]2(OC(C)=O)C2[C@H](OC(=O)c3ccccc3)[C@]3(O)C[C@H](OC(=O)[C@H](O)[C@@H](NC(=O)OC(C)(C)C)c4ccsc4)C(C)=C([C@@H](O)C(=O)[C@@]21C)C3(C)C` (stereo partly drawn) [Compound 4444] gave an IC50 of under 1 nM.

Same assay, conditions: HCT116 cells, colony formation, 72 h incubation with drug, colonies counted after 7 days; ID50 = drug concentration producing 50% inhibition of colony formation; read-out: IN VITRO ID 50 (nm) HCT116

`CCNC(=O)O[C@H]1C(=O)[C@@]2(C)C([C@H](OC(=O)c3ccccc3)[C@]3(O)C[C@H](OC(=O)[C@H](O)[C@H](C=C(C)C)NC(=O)OC(C)(C)C)C(C)=C1C3(C)C)[C@]1(OC(C)=O)CO[C@@H]1C[C@@H]2O` (stereo partly drawn) [Compound 2686] and `CCNC(=O)O[C@H]1C(=O)[C@@]2(C)C([C@H](OC(=O)c3ccccc3)[C@]3(O)C[C@H](OC(=O)[C@H](O)[C@@H](NC(=O)OC(C)(C)C)C(C)C)C(C)=C1C3(C)C)[C@]1(OC(C)=O)CO[C@@H]1C[C@@H]2O` (stereo partly drawn) [Compound 2633] cannot be ordered by IC50: under 1 nM for the first, under 10 nM for the second.

Same assay, conditions: HCT116 colony formation; 72 h drug incubation, colonies counted after 7 days; Example 5, C-7 ester/C-10 hydroxy taxanes; read-out: IN VITRO ID 50 (nm) HCT116

`C/C=C/C(=O)N[C@@H](c1ccco1)[C@@H](O)C(=O)O[C@H]1C[C@@]2(O)[C@@H](OC(=O)c3ccccc3)C3[C@](C)(C(=O)[C@H](O)C(=C1C)C2(C)C)[C@@H](OC(=O)C(C)C)C[C@H]1OC[C@@]31OC(C)=O` (stereo partly drawn) [Compound 6202] and `C/C=C/C(=O)N[C@@H](c1ccco1)[C@@H](O)C(=O)O[C@H]1C[C@@]2(O)[C@@H](OC(=O)c3ccccc3)C3[C@](C)(C(=O)[C@H](O)C(=C1C)C2(C)C)[C@@H](OC(=O)CCC)C[C@H]1OC[C@@]31OC(C)=O` (stereo partly drawn) [Compound 4737] cannot be ordered by IC50: under 1 nM for the first, under 1 nM for the second.

`CCC(=O)O[C@H]1C[C@H]2OC[C@@]2(OC(C)=O)C2[C@H](OC(=O)c3ccccc3)[C@]3(O)C[C@H](OC(=O)[C@H](O)[C@@H](NC(=O)OC(C)(C)C)c4ccoc4)C(C)=C([C@@H](O)C(=O)[C@@]21C)C3(C)C` (stereo partly drawn) [Compound 1401] and `CCC(=O)O[C@H]1C[C@H]2OC[C@@]2(OC(C)=O)C2[C@H](OC(=O)c3ccccc3)[C@]3(O)C[C@H](OC(=O)[C@H](O)[C@@H](NC(=O)OC(C)(C)C)c4ccccn4)C(C)=C([C@@H](O)C(=O)[C@@]21C)C3(C)C` (stereo partly drawn) [Compound 1364] cannot be ordered by IC50: under 1 nM for the first, under 10 nM for the second.

For `CC(=O)O[C@@]12CO[C@@H]1C[C@H](OC(=O)CC(C)C)[C@@]1(C)C(=O)[C@H](O)C3=C(C)[C@@H](OC(=O)[C@H](O)[C@@H](NC(=O)OC=C(C)C)c4ccco4)C[C@@](O)([C@@H](OC(=O)c4ccccc4)C12)C3(C)C` (stereo partly drawn) [Compound 6131], the IC50 was under 1 nM.

Same assay, conditions: HCT116 colony formation; 72 h drug incubation, colonies counted after 7 days; Example 10, C-10 ester/C-7 hydroxy taxanes; read-out: IN VITRO ID 50 (nm) HCT116

`CC(=O)O[C@@]12CO[C@@H]1C[C@H](O)[C@@]1(C)C(=O)[C@H](OC(=O)C3CC3)C3=C(C)[C@@H](OC(=O)[C@H](O)[C@@H](NC(=O)OC(C)C)c4ccco4)C[C@@](O)([C@@H](OC(=O)c4ccccc4)C12)C3(C)C` (stereo partly drawn) [Compound 3853] and `CC(=O)O[C@@]12CO[C@@H]1C[C@H](O)[C@@]1(C)C(=O)[C@H](OC(=O)C3CC3)C3=C(C)[C@@H](OC(=O)[C@H](O)[C@@H](NC(=O)OCC(C)C)c4ccco4)C[C@@](O)([C@@H](OC(=O)c4ccccc4)C12)C3(C)C` (stereo partly drawn) [Compound 3102] cannot be ordered by IC50: under 1 nM for the first, under 1 nM for the second.

`CCC(=O)O[C@H]1C(=O)[C@@]2(C)C([C@H](OC(=O)c3ccccc3)[C@]3(O)C[C@H](OC(=O)[C@H](O)[C@H](C=C(C)C)NC(=O)OCC(C)C)C(C)=C1C3(C)C)[C@]1(OC(C)=O)CO[C@@H]1C[C@@H]2O` (stereo partly drawn) [Compound 5065] and `C/C=C/C(=O)O[C@H]1C(=O)[C@@]2(C)C([C@H](OC(=O)c3ccccc3)[C@]3(O)C[C@H](OC(=O)[C@H](O)[C@H](C=C(C)C)NC(=O)OC(C)(C)C)C(C)=C1C3(C)C)[C@]1(OC(C)=O)CO[C@@H]1C[C@@H]2O` (stereo partly drawn) [Compound 2332] cannot be ordered by IC50: under 10 nM for the first, under 1 nM for the second.

`CC(=O)O[C@@]12CO[C@@H]1C[C@H](O)[C@@]1(C)C(=O)[C@H](OC(=O)C(C)C)C3=C(C)[C@@H](OC(=O)[C@H](O)[C@@H](NC(=O)OC(C)(C)C)c4cccnc4)C[C@@](O)([C@@H](OC(=O)c4ccccc4)C12)C3(C)C` (stereo partly drawn) [Compound 2242] and `C/C=C/C(=O)O[C@H]1C(=O)[C@@]2(C)C([C@H](OC(=O)c3ccccc3)[C@]3(O)C[C@H](OC(=O)[C@H](O)[C@@H](NC(=O)OC(C)(C)C)c4cccnc4)C(C)=C1C3(C)C)[C@]1(OC(C)=O)CO[C@@H]1C[C@@H]2O` (stereo partly drawn) [Compound 2353] cannot be ordered by IC50: under 10 nM for the first, under 10 nM for the second.

`CC(=O)O[C@@]12CO[C@@H]1C[C@H](O)[C@@]1(C)C(=O)[C@H](OC(=O)C3CC3)C3=C(C)[C@@H](OC(=O)[C@H](O)[C@@H](NC(=O)OCC(C)C)c4ccoc4)C[C@@](O)([C@@H](OC(=O)c4ccccc4)C12)C3(C)C` (stereo partly drawn) [Compound 4665] and `CC(=O)O[C@@]12CO[C@@H]1C[C@H](O)[C@@]1(C)C(=O)[C@H](OC(=O)C3CC3)C3=C(C)[C@@H](OC(=O)[C@H](O)[C@@H](NC(=O)OCC(C)C)c4ccsc4)C[C@@](O)([C@@H](OC(=O)c4ccccc4)C12)C3(C)C` (stereo partly drawn) [Compound 5011] cannot be ordered by IC50: under 10 nM for the first, under 10 nM for the second.

`CC(=O)OC12COC1CC(O)C1(C)C(=O)C(OC(=O)c3ccco3)C3=C(C)C(OC(=O)C(O)C(NC(=O)OC(C)(C)C)C(C)C)CC(O)(C(OC(=O)c4ccccc4)C21)C3(C)C` (stereo not drawn) [Compound 2181] and `CC(=O)O[C@@]12CO[C@@H]1C[C@H](O)[C@@]1(C)C(=O)[C@H](OC(=O)C=C(C)C)C3=C(C)[C@@H](OC(=O)[C@H](O)[C@@H](NC(=O)OC(C)(C)C)c4ccoc4)C[C@@](O)([C@@H](OC(=O)c4ccccc4)C12)C3(C)C` (stereo partly drawn) [Compound 2499] cannot be ordered by IC50: under 10 nM for the first, under 1 nM for the second.

`CCC(=O)O[C@H]1C(=O)[C@@]2(C)C([C@H](OC(=O)c3ccccc3)[C@]3(O)C[C@H](OC(=O)[C@H](O)[C@@H](NC(=O)c4ccccc4)c4ccsc4)C(C)=C1C3(C)C)[C@]1(OC(C)=O)CO[C@@H]1C[C@@H]2O` (stereo partly drawn) [Compound 0691] and `CCCC(=O)O[C@H]1C(=O)[C@@]2(C)C([C@H](OC(=O)c3ccccc3)[C@]3(O)C[C@H](OC(=O)[C@H](O)[C@@H](NC(=O)OC(C)(C)C)c4ccsc4)C(C)=C1C3(C)C)[C@]1(OC(C)=O)CO[C@@H]1C[C@@H]2O` (stereo partly drawn) [Compound 1011] cannot be ordered by IC50: under 1 nM for the first, under 1 nM for the second.

`CCCC(=O)OC1C(=O)C2(C)C(O)CC3OCC3(OC(C)=O)C2C(OC(=O)c2ccccc2)C2(O)CC(OC(=O)C(O)C(NC(=O)OC(C)(C)C)C3CC3)C(C)=C1C2(C)C` (stereo not drawn) [Compound 1020] and `CCCC(=O)OC1C(=O)C2(C)C(O)CC3OCC3(OC(C)=O)C2C(OC(=O)c2ccccc2)C2(O)CC(OC(=O)C(O)C(NC(=O)OC(C)(C)C)C3CCC3)C(C)=C1C2(C)C` (stereo not drawn) [Compound 1044] cannot be ordered by IC50: under 1 nM for the first, under 1 nM for the second.

`C/C=C/C(=O)N[C@@H](c1ccoc1)[C@@H](O)C(=O)O[C@H]1C[C@@]2(O)[C@@H](OC(=O)c3ccccc3)C3[C@](C)(C(=O)[C@H](OC(=O)CCC)C(=C1C)C2(C)C)[C@@H](O)C[C@H]1OC[C@@]31OC(C)=O` (stereo partly drawn) [Compound 4919] and `C/C=C/C(=O)N[C@@H](c1ccsc1)[C@@H](O)C(=O)O[C@H]1C[C@@]2(O)[C@@H](OC(=O)c3ccccc3)C3[C@](C)(C(=O)[C@H](OC(=O)C4CC4)C(=C1C)C2(C)C)[C@@H](O)C[C@H]1OC[C@@]31OC(C)=O` (stereo partly drawn) [Compound 5040] cannot be ordered by IC50: under 1 nM for the first, under 1 nM for the second.

`C/C=C/C(=O)O[C@H]1C(=O)[C@@]2(C)C([C@H](OC(=O)c3ccccc3)[C@]3(O)C[C@H](OC(=O)[C@H](O)[C@@H](NC(=O)OC(C)(C)C)c4cccs4)C(C)=C1C3(C)C)[C@]1(OC(C)=O)CO[C@@H]1C[C@@H]2O` (stereo partly drawn) [Compound 2392] and `CCCC(=O)O[C@H]1C(=O)[C@@]2(C)C([C@H](OC(=O)c3ccccc3)[C@]3(O)C[C@H](OC(=O)[C@H](O)[C@@H](NC(=O)c4cccs4)c4cccs4)C(C)=C1C3(C)C)[C@]1(OC(C)=O)CO[C@@H]1C[C@@H]2O` (stereo partly drawn) [Compound 3408] cannot be ordered by IC50: under 1 nM for the first, under 1 nM for the second.

Same assay, conditions: HCT116 colony formation; 72 h drug incubation, colonies counted after 7 days; Example 15, C-7 substituted acetate/C-10 hydroxy taxanes; read-out: IN VITRO ID 50 (nm) HCT116

`CCC(C)(C)OC(=O)N[C@@H](c1ccco1)[C@@H](O)C(=O)O[C@H]1C[C@@]2(O)[C@@H](OC(=O)c3ccccc3)C3[C@](C)(C(=O)[C@H](O)C(=C1C)C2(C)C)[C@@H](OC(=O)COC(C)=O)C[C@H]1OC[C@@]31OC(C)=O` (stereo partly drawn) [Compound 6353] gave an IC50 of under 1 nM.
